Test results taken from patent publication US8269043B2, “Bicyclic aryl sphingosine 1-phosphate analogs” (Biogen Idec MA Inc., priority 2008, dated 2012).

System: circulating lymphocytes
Experiment: Lymphopenia assay: circulating lymphocytes after oral gavage
Type: in vivo
Settings: Mus musculus, Lymphocyte, po, C57bl/6 male mice, oral gavage 0.5 and 5 mg/kg in 30% HPCD, blood 5 and 24 hours after administration
Experimental: Measurement of circulating lymphocytes: Compounds were dissolved in 30% HPCD. Mice (C57bl/6 male, 6-10 week-old) were administered 0.5 and 5 mg/kg of a compound via oral gavage. 30% HPCD was included as a negative control.
Blood was collected from the retro-orbital sinus 5 and 24 hours after drug administration under short isoflurane anesthesia. Whole blood samples were subjected to hematology analysis. Peripheral lymphocyte counts were determined using an automated analyzer (HEMAVET™ 3700). Three mice were used to assess the lymphocyte depletion activity of each compound screened.
Compounds of formula (I) induced full lymphopenia at times as short as 3 hours or less to as long as 48 hours or more; for example, 4 to 36 hours, or 5 to 24 hours. In some cases, a compound of formula induced full lymphopenia at 5 hours and partial lymphopenia at 24 hours. The dosage required to induce lymphopenia can be in the range of, e.g., 0.001 mg/kg to 100 mg/kg; or 0.01 mg/kg to 10 mg/kg. The dosage can be 10 mg/kg or less, such as 5 mg/kg or less, 1 mg/kg or less, or 0.1 mg/kg or less

| Compound | ED50 [mg/kg] |
| --- | --- |
| C[C@](N)(CO)c1ccc2c(C(F)(F)F)c(O[C@H]3CC[C@H](C4CCCCC4)CC3)ccc2c1 [Example 163, (R)-2-Amino-2-(6-(trans-4-cyclohexylcyclohexyloxy)-5-(trifluoromethyl)naphthalen-2-yl)propan-1-ol] | < 0.5 |
| CC(C)[C@H]1CC[C@@H](Oc2ccc3cc([C@@](C)(N)CO)ccc3c2C(F)(F)F)CC1 [Example 167, (R)-2-Amino-2-(6-(cis-4-isopropylcyclohexyloxy)-5-(trifluoromethyl)naphthalen-2-yl)propan-1-ol] | < 0.5 |
| CC(C)[C@H]1CC[C@H](Oc2ccc3cc([C@@](C)(N)CO)ccc3c2C(F)(F)F)CC1 [Example 168, (R)-2-Amino-2-(6-(trans-4-isopropylcyclohexyloxy)-5-(trifluoromethyl)naphthalen-2-yl)propan-1-ol] | < 0.5 |
| C[C@](N)(CO)c1ccc2cc(Oc3cccc(Cl)c3)ccc2c1 [Example 172, (R)-2-Amino-2-(6-(3-chlorophenoxy)naphthalen-2-yl)propan-1-ol] | 0.5 to 5 |
| C[C@](N)(CO)c1ccc2cc(Oc3ccc(Cl)cc3)ccc2c1 [Example 173, (R)-2-Amino-2-(6-(4-chlorophenoxy)naphthalen-2-yl)propan-1-ol] | 0.5 to 5 |
| C[C@](N)(CO)c1ccc2cc(Oc3cccc(Br)c3)ccc2c1 [Example 174, (R)-2-Amino-2-(6-(3-bromophenoxy)naphthalen-2-yl)propan-1-ol] | > 5 |
| C[C@](N)(CO)c1ccc2cc(Oc3cccc(OC(F)(F)F)c3)ccc2c1 [Example 175, (R)-2-Amino-2-(6-(3-(trifluoromethoxy)phenoxy)naphthalen-2-yl)propan-1-ol] | 0.5 to 5 |
| CCc1ccc(Oc2ccc3cc([C@@](C)(N)CO)ccc3c2)cc1 [Example 176, (R)-2-Amino-2-(6-(4-ethylphenoxy)naphthalen-2-yl)propan-1-ol] | 0.5 to 5 |
| CC(C)c1cccc(Oc2ccc3cc([C@@](C)(N)CO)ccc3c2)c1 [Example 177, (R)-2-Amino-2-(6-(3-isopropylphenoxy)naphthalen-2-yl)propan-1-ol] | > 5 |
| CC(C)Cc1ccc(Oc2ccc3cc([C@@](C)(N)CO)ccc3c2)cc1 [Example 178, (R)-2-Amino-2-(6-(4-isobutylphenoxy)naphthalen-2-yl)propan-1-ol] | < 0.5 |
| CC(C)(C)c1ccc(Oc2ccc3cc([C@@](C)(N)CO)ccc3c2)cc1 [Example 179, (R)-2-Amino-2-(6-(4-tert-butylphenoxy)naphthalen-2-yl)propan-1-ol] | 0.5 to 5 |
| Cc1ccc(Oc2ccc3cc([C@@](C)(N)CO)ccc3c2)cc1 [Example 180, (R)-2-Amino-2-(6-(p-tolyloxy)naphthalen-2-yl)propan-1-ol] | 0.5 to 5 |
| C[C@](N)(CO)c1ccc2cc(Oc3ccc(C(F)(F)F)cc3)ccc2c1 [Example 181, (R)-2-Amino-2-(6-(4-(trifluoromethyl)phenoxy)naphthalen-2-yl)propan-1-ol] | > 5 |
| CCc1ccccc1Oc1ccc2cc([C@@](C)(N)CO)ccc2c1 [Example 182, (R)-2-Amino-2-(6-(2-ethylphenoxy)naphthalen-2-yl)propan-1-ol] | 0.5 to 5 |
| C[C@](N)(CO)c1ccc2cc(Oc3ccc(F)c(F)c3)ccc2c1 [Example 183, (R)-2-Amino-2-(6-(3,4-difluorophenoxy)naphthalen-2-yl)propan-1-ol] | 0.5 to 5 |
| Cc1ccc(Oc2ccc3cc([C@@](C)(N)CO)ccc3c2)cc1C [Example 184, (R)-2-Amino-2-(6-(3,4-dimethylphenoxy)naphthalen-2-yl)propan-1-ol] | > 5 |
| C[C@](N)(CO)c1ccc2cc(Oc3ccc(F)c(Cl)c3)ccc2c1 [Example 185, (R)-2-Amino-2-(6-(3-chloro-4-fluorophenoxy)naphthalen-2-yl)propan-1-ol] | 0.5 to 5 |
| C[C@](N)(CO)c1ccc2cc(Oc3cc(F)cc(F)c3)ccc2c1 [Example 186, (R)-2-Amino-2-(6-(3,5-difluorophenoxy)naphthalen-2-yl)propan-1-ol] | 0.5 to 5 |
| Cc1cc(C)cc(Oc2ccc3cc([C@@](C)(N)CO)ccc3c2)c1 [Example 187, (R)-2-Amino-2-(6-(3,5-dimethylphenoxy)naphthalen-2-yl)propan-1-ol] | 0.5 to 5 |

| Compound | ED50 [mg/kg] |
| --- | --- |
| CC(C)Oc1ccc(Oc2ccc3cc([C@@](C)(N)CO)ccc3c2)cc1 [Example 189, (R)-2-Amino-2-[6-(4-isopropoxy-phenoxy)-naphthalen-2-yl]-propan-1-ol] | < 0.5 |
| NC(CO)(CO)c1ccc2cc(Oc3cccc(C(F)(F)F)c3)ccc2c1 [Example 191, 2-Amino-2-(6-(3-(trifluoromethyl)phenoxy)naphthalen-2-yl)propane-1,3-diol] | > 5 |
| NC(CO)(CO)c1ccc2cc(Sc3cccc(OCc4ccccc4)c3)ccc2c1 [Example 192, 2-Amino-2-(6-(3-(benzyloxy)phenylthio)naphthalen-2-yl)propane-1,3-diol] | < 0.5 |
| NC(CO)(CO)c1ccc2cc(Oc3cccc(OCc4ccccc4)c3)ccc2c1 [Example 194, 2-Amino-2-(6-(3-(benzyloxy)phenoxy)naphthalen-2-yl)propane-1,3-diol] | < 0.5 |
| CCCCCOc1cccc(Oc2ccc3cc(C(N)(CO)CO)ccc3c2)c1 [Example 196, 2-Amino-2-(6-(3-(pentyloxy)phenoxy)naphthalen-2-yl)propane-1,3-diol] | < 0.5 |
| NC(CO)(CO)c1ccc2cc(Oc3cccc(OCCc4ccccc4)c3)ccc2c1 [Example 197, 2-Amino-2-(6-(3-phenethoxyphenoxy)naphthalen-2-yl)propane-1,3-diol] | < 0.5 |
| CC(C)CCOc1cccc(Oc2ccc3cc(C(N)(CO)CO)ccc3c2)c1 [Example 198, 2-Amino-2-(6-(3-(isopentyloxy)phenoxy)naphthalen-2-yl)propane-1,3-diol] | 0.5 to 5 |
| NC(CO)(CO)c1ccc2cc(Oc3cccc(OCC4CCCCC4)c3)ccc2c1 [Example 199, 2-Amino-2-(6-(3-(cyclohexylmethoxy)phenoxy)naphthalen-2-yl)propane-1,3-diol] | < 0.5 |
| NC(CO)(CO)c1ccc2cc(Oc3cccc(OCCCC(F)(F)F)c3)ccc2c1 [Example 200, 2-Amino-2-(6-(3-(4,4,4-trifluorobutoxy)phenoxy)naphthalen-2-yl)propane-1,3-diol] | < 0.5 |
| CC(N)(CCC(=O)O)c1ccc2c(C(F)(F)F)c(O[C@H]3CC[C@H](C(C)(C)C)CC3)ccc2c1 (stereo partly drawn) [Example 211, 4-amino-4-(6-(trans-4-tert-butylcyclohexyloxy)-5-(trifluoromethyl)naphthalen-2-yl) pentanoic acid] | 0.5 to 5 |
| CC(C)(C)[C@H]1CC[C@H](Oc2ccc3cc([C@@](C)(N)CO)ccc3c2C2CC2)CC1 [Example 215, (R)-2-amino-2-(6-(trans-4-tert-butylcyclohexyloxy)-5-cyclopropylnaphthalen-2-yl)propan-1-ol] | < 0.5 |
| Cc1c(O[C@H]2CC[C@H](C(C)(C)C)CC2)ccc2cc([C@@](C)(N)CO)ccc12 [Example 217, (R)-2-amino-2-(6-(trans-4-tert-butylcyclohexyloxy)-5-methylnaphthalen-2-yl)propan-1-ol] | < 0.5 |
| C=Cc1c(O[C@H]2CC[C@H](C(C)(C)C)CC2)ccc2cc([C@@](C)(N)CO)ccc12 [Example 219, (R)-2-amino-2-(6-(trans-4-tert-butylcyclohexyloxy)-5-vinylnaphthalen-2-yl)propan-1-ol] | < 0.5 |
| CC(C)(C)[C@H]1CC[C@H](Oc2ccc3cc([C@@](C)(N)CO)ccc3c2-c2ccc(OC(F)(F)F)cc2)CC1 [Example 221, (R)-2-amino-2-(6-(trans-4-tert-butylcyclohexyloxy)-5-(4-(trifluoromethoxy)phenyl)naphthalen-2-yl)propan-1-ol] | > 5 |
| CC(C)(C)[C@H]1CC[C@H](Oc2ccc3cc([C@@](C)(N)CO)ccc3c2-c2ccc(S(C)(=O)=O)cc2)CC1 [Example 223, (R)-2-amino-2-(6-(trans-4-tert-butylcyclohexyloxy)-5-(4-(methylsulfonyl)phenyl)naphthalen-2-yl)propan-1-ol] | > 5 |
| CC(C)(C)[C@H]1CC[C@H](Oc2ccc3cc([C@@](C)(N)CO)ccc3c2-c2cncnc2)CC1 [Example 225, (R)-2-amino-2-(6-(trans-4-tert-butylcyclohexyloxy)-5-(pyrimidin-5-yl)naphthalen-2-yl)propan-1-ol] | > 5 |
| CCOc1ccc(-c2c(O[C@H]3CC[C@H](C(C)(C)C)CC3)ccc3cc([C@@](C)(N)CO)ccc23)cc1 [Example 227, (R)-2-amino-2-(6-(trans-4-tert-butylcyclohexyloxy)-5-(4-ethoxyphenyl)naphthalen-2-yl)propan-1-ol] | 0.5 to 5 |
| CC(C)(C)[C@H]1CC[C@H](Oc2ccc3cc([C@@](C)(N)CO)ccc3c2-c2ccccc2)CC1 [Example 229, (R)-2-amino-2-(6-(trans-4-tert-butylcyclohexyloxy)-5-phenylnaphthalen-2-yl)propan-1-ol] | > 5 |
| CC(C)(C)[C@H]1CC[C@H](Oc2ccc3cc([C@@](C)(N)CO)ccc3c2-c2cccc(Cl)c2)CC1 [Example 231, (R)-2-amino-2-(6-(trans-4-tert-butylcyclohexyloxy)-5-(3-chlorophenyl)naphthalen-2-yl)propan-1-ol] | > 5 |
